Measured values as given in paper PMC12136031 (Science Advances, 2025).
Where two headings read alike, the source gives them in different places.

Experiments:
DCAF7-TFEB interaction = biological target: T1, DCAF7-TFEB interaction (Homo sapiens, UniProt P61962); assay: Proximity ligation assay of TFEB and DCAF7 in BEAS-2B cells; format: cell-based
T1 construct: endogenous in cells; host or cells: BEAS-2B

ADORA2A = biological target: T2, ADORA2A (Homo sapiens, UniProt P29274); assay: Safety47 Calcium Flux ADORA2A; format: cell-based; conditions: for Emax: read-out: Max Response; for EC50: read-out: RC50 (EC50); for IC50: read-out: RC50 (IC50)
T2 construct: purchased Eurofins Panlab Safety47 Safety Scan

ADRA2A = biological target: T3, ADRA2A (Homo sapiens, UniProt P08913); assay: Safety47 cAMP ADRA2A; format: cell-based; conditions: for Emax: read-out: Max Response; for EC50: read-out: RC50 (EC50); for IC50: read-out: RC50 (IC50)
T3 construct: purchased Eurofins Panlab Safety47 Safety Scan
T3 sequence (P08913 1-465): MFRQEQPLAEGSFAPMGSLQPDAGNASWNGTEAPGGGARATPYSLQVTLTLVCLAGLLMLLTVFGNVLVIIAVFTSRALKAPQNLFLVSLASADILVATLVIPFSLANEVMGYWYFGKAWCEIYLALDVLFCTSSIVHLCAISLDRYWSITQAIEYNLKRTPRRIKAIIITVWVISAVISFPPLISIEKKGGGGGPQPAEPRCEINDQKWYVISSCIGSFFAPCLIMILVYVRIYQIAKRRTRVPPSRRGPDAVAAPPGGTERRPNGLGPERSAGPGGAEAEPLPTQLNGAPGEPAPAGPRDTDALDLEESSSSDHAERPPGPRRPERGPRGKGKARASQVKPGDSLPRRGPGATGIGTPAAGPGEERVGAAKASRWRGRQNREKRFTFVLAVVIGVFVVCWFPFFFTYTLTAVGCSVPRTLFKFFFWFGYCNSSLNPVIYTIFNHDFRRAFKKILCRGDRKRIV

DRD2S = biological target: T4, DRD2S (Homo sapiens, UniProt P14416); assay: Safety47 cAMP DRD2S; format: cell-based; conditions: for Emax: read-out: Max Response; for EC50: read-out: RC50 (EC50); for IC50: read-out: RC50 (IC50)
T4 construct: purchased Eurofins Panlab Safety47 Safety Scan

HTR1B = biological target: T5, HTR1B (Homo sapiens, UniProt P28222); assay: Safety47 cAMP HTR1B; format: cell-based; conditions: for Emax: read-out: Max Response; for EC50: read-out: RC50 (EC50); for IC50: read-out: RC50 (IC50)
T5 construct: purchased Eurofins Panlab (Safety47 Safety Scan, contract panel)

OPRD1 = biological target: T6, OPRD1 (Homo sapiens, UniProt P41143); assay: Safety47 cAMP OPRD1; format: cell-based; conditions: for Emax: read-out: Max Response; for EC50: read-out: RC50 (EC50); for IC50: read-out: RC50 (IC50)
T6 construct: purchased Eurofins Panlab (Safety47 Safety Scan, contract panel)

OPRM1 = biological target: T7, OPRM1 (Homo sapiens, UniProt P35372); assay: Safety47 cAMP OPRM1; format: cell-based; conditions: for Emax: OPRM1, cAMP, read-out: Max Response; for EC50: read-out: RC50 (EC50); for IC50: read-out: RC50 (IC50)
T7 construct: purchased Eurofins Panlab (Safety47 Safety Scan, contract panel)

GABAA = assay: Safety47 Ion Channel GABAA; format: cell-based; conditions: for IC50: read-out: RC50 (IC50); for EC50: read-out: RC50 (EC50)
hERG = biological target: T8, hERG (Homo sapiens, UniProt Q12809); assay: Safety47 Ion Channel hERG; format: cell-based; conditions: Blocker; for IC50: read-out: RC50 (IC50); for Emax: human, read-out: Max Response
T8 construct: purchased Eurofins Panlab (Safety47 Safety Scan, contract panel)

KvLQT1/minK = biological target: T9, KvLQT1/minK (Homo sapiens, UniProt P51787); assay: Safety47 Ion Channel KvLQT1/minK; format: cell-based; conditions: for Emax: read-out: Max Response; for IC50: read-out: RC50 (IC50); for EC50: read-out: RC50 (EC50)
T9 construct: purchased Eurofins Panlab (Safety47 Safety Scan, contract panel)

AR = biological target: T10, AR (Homo sapiens, UniProt P10275); assay: Safety47 NHR Nuclear Translocation AR; format: cell-based; conditions: for Emax: read-out: Max Response; for EC50: read-out: RC50 (EC50); for IC50: read-out: RC50 (IC50)
T10 construct: purchased Eurofins Panlab (Safety47 Safety Scan, contract panel)
T10 sequence (P10275 1-920): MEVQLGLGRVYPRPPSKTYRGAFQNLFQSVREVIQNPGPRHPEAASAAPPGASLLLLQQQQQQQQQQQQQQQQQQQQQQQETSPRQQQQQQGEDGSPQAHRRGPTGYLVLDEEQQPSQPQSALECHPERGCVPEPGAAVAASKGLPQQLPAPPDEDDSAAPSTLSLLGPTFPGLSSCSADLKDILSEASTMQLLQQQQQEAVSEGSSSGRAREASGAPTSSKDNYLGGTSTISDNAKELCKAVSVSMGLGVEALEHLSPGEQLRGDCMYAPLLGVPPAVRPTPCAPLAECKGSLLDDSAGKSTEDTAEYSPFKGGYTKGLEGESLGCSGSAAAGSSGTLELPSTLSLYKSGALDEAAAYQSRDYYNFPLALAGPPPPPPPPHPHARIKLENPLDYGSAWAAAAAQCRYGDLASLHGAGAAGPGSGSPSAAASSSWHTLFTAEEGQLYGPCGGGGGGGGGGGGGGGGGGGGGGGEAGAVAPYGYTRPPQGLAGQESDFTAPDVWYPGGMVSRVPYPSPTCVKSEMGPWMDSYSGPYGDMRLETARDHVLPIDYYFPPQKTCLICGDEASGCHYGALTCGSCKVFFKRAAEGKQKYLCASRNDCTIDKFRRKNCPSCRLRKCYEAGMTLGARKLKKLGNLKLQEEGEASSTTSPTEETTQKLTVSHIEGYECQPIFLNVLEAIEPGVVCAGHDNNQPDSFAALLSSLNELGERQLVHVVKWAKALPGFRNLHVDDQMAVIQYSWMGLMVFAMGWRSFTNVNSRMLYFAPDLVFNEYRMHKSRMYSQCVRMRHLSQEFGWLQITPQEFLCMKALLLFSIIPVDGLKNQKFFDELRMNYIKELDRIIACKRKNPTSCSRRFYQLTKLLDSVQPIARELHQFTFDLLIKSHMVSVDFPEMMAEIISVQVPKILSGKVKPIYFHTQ

COX1 = biological target: T11, COX1 (Homo sapiens, UniProt P23219); assay: Safety47 Enzymatic COX1; format: biochemical; conditions: Inhibitor; for Emax: read-out: Max Response; for IC50: read-out: RC50 (IC50)
T11 construct: purchased Eurofins Panlab (Safety47 Safety Scan, contract panel)

PDE3A = biological target: T12, PDE3A (Homo sapiens, UniProt Q14432); assay: Safety47 Enzymatic PDE3A; format: biochemical; conditions: Inhibitor; for Emax: read-out: Max Response; for IC50: read-out: RC50 (IC50)
T12 construct: purchased Eurofins Panlab (Safety47 Safety Scan, contract panel)

PDE4D2 = biological target: T13, PDE4D2 (Homo sapiens, UniProt Q08499); assay: Safety47 Enzymatic PDE4D2; format: biochemical; conditions: Inhibitor; for Emax: read-out: Max Response; for IC50: read-out: RC50 (IC50)
T13 construct: purchased Eurofins Panlab (Safety47 Safety Scan, contract panel)

DAT = biological target: T14, DAT (Homo sapiens, UniProt Q01959); assay: Safety47 Transporter DAT; format: cell-based; conditions: Blocker; for Emax: read-out: Max Response; for IC50: read-out: RC50 (IC50)
T14 construct: purchased Eurofins Panlab (Safety47 Safety Scan, contract panel)

NET = biological target: T15, NET (Homo sapiens, UniProt P23975); assay: Safety47 Transporter NET; format: cell-based; conditions: Blocker; for Emax: read-out: Max Response; for IC50: read-out: RC50 (IC50)
T15 construct: purchased Eurofins Panlab Safety47 Safety Scan
T15 sequence (P23975 whole entry): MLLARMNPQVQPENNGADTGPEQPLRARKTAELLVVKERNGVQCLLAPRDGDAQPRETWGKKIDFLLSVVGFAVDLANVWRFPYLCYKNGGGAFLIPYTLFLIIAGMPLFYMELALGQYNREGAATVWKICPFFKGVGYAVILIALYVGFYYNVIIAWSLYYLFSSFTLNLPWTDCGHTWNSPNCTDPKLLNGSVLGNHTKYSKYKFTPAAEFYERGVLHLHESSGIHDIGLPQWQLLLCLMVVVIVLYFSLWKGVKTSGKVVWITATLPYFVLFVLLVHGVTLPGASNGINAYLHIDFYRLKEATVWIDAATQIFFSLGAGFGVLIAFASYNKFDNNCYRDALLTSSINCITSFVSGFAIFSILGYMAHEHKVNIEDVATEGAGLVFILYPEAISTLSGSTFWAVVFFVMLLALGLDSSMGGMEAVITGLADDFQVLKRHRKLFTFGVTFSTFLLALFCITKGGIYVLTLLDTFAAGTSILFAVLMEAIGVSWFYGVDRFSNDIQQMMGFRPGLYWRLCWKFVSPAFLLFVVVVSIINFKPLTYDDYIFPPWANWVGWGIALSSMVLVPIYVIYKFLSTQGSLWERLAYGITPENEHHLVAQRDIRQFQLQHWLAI

T7 sequence (P35372 whole entry, species assumed): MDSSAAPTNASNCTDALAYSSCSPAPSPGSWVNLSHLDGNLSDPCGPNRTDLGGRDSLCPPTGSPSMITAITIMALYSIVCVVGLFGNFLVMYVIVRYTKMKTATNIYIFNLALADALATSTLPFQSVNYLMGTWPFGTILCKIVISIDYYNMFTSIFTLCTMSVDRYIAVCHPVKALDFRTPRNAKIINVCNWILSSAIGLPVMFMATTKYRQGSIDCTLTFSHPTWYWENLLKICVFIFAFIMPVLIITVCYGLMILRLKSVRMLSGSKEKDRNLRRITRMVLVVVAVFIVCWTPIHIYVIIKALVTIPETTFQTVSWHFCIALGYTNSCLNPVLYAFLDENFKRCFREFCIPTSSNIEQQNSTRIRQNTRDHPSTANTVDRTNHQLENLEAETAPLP
T4 sequence (P14416 1-414 isoform P14416-2): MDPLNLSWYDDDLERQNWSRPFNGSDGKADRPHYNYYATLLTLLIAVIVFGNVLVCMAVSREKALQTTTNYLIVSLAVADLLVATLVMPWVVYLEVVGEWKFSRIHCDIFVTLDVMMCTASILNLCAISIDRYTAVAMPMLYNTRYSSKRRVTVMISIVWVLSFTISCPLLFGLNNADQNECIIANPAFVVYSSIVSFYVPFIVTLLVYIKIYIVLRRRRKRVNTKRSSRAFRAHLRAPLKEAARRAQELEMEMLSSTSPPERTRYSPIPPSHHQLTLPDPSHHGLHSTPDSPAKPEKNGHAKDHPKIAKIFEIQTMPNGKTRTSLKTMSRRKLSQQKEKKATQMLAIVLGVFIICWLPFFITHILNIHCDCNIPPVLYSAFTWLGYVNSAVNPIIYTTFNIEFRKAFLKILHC
T5 sequence (P28222 whole entry, species assumed): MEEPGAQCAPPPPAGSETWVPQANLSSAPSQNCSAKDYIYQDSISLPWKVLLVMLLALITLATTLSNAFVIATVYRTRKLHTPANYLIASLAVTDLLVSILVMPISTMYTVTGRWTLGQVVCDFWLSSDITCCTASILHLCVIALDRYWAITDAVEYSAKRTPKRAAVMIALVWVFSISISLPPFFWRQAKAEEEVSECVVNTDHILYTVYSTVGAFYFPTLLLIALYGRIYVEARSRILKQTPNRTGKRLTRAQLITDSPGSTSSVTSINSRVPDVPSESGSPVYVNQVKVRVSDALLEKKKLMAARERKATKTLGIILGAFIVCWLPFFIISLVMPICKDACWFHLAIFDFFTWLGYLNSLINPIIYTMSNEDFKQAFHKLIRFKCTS
T12 sequence (Q14432 whole entry, species assumed): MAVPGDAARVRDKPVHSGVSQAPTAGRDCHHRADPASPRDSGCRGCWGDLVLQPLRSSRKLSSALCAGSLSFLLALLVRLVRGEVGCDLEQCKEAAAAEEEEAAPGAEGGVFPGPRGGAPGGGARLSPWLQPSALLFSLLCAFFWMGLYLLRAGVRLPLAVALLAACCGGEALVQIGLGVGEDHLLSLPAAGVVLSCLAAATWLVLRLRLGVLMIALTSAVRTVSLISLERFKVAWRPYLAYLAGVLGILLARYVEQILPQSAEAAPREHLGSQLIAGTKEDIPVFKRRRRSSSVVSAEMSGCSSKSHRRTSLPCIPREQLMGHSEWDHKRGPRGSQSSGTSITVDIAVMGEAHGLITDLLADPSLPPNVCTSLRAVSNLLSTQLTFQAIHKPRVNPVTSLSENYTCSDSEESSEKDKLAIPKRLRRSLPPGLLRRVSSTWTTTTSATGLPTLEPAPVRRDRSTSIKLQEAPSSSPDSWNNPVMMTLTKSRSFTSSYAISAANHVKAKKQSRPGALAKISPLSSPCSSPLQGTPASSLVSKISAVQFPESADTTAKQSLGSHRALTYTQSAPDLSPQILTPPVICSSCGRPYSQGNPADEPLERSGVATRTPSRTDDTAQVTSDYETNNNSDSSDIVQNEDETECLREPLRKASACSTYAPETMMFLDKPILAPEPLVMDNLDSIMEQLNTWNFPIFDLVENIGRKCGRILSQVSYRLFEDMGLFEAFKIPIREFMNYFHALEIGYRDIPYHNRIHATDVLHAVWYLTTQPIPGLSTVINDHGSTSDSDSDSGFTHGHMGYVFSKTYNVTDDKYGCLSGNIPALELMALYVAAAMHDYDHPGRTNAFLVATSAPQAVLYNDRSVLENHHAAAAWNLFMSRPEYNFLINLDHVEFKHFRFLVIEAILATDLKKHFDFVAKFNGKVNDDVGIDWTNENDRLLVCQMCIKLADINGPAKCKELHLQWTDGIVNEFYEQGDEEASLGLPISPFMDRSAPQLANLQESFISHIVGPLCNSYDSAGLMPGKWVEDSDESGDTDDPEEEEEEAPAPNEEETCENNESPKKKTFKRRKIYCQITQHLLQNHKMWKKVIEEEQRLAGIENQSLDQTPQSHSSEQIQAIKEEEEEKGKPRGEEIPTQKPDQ
T6 sequence (P41143 whole entry, species assumed): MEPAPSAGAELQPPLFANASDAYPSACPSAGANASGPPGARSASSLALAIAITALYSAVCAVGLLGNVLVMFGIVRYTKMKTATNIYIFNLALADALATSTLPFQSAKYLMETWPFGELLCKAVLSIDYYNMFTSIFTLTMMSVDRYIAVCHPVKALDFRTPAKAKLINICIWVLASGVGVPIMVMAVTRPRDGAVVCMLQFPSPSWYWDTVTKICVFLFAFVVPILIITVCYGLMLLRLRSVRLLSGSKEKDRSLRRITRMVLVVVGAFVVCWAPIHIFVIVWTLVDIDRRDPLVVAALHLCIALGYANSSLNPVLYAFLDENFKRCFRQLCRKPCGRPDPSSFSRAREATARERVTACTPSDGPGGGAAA
T8 sequence (Q12809 whole entry): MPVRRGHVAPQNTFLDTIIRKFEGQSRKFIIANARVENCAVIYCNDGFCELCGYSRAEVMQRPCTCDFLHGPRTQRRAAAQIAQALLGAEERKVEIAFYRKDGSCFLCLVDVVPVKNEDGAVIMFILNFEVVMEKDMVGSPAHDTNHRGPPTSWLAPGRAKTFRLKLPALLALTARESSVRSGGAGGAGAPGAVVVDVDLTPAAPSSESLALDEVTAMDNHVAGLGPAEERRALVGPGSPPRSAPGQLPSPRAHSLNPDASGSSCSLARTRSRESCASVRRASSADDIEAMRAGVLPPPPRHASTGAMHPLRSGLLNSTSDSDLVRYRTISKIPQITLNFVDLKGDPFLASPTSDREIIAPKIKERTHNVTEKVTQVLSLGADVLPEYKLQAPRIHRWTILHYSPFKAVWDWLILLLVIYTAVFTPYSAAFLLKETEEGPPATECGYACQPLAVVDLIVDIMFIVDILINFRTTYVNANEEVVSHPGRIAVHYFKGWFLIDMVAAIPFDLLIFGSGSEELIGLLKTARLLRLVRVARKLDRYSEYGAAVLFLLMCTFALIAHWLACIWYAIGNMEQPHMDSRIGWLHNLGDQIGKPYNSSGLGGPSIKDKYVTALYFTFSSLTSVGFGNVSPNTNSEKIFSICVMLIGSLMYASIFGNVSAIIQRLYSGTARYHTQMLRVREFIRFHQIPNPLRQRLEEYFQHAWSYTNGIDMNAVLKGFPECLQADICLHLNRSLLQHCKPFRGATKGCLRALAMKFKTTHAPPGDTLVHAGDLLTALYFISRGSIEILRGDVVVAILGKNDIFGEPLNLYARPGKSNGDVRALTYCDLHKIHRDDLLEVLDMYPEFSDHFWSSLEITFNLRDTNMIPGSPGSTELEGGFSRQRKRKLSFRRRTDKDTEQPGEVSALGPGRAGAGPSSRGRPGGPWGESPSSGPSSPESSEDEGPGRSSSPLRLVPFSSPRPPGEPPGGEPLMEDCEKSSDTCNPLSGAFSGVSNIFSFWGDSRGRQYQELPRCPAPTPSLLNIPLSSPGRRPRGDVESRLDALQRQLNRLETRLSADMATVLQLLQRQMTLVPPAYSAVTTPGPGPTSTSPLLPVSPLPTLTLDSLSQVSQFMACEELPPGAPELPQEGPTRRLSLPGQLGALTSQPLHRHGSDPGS
T13 sequence (Q08499 303-809 limits assumed): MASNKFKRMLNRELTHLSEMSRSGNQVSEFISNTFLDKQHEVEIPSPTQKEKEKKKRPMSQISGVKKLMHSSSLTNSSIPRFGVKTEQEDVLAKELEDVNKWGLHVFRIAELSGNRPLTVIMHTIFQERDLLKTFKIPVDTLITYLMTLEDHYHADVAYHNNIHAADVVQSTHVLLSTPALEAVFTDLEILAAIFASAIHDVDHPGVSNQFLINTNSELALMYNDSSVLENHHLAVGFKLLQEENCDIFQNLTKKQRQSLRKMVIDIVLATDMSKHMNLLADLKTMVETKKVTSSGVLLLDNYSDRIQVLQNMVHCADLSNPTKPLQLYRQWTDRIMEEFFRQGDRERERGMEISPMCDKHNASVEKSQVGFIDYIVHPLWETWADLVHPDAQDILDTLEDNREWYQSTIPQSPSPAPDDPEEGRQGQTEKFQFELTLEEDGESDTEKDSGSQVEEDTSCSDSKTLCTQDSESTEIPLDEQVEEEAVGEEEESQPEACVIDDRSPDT

Cl.Fc1cc(Nc2nc(-c3ccncc3)nc3ncccc23)cc2cc[nH]c12 [BC18813, N-(7-fluoro-1H-indol-5-yl)-2-pyridin-4-ylpyrido[2,3-d]pyrimidin-4-amine hydrochloride]
Nuclear protein-protein interaction between DCAF7 and TFEB (PLA) (DCAF7-TFEB interaction): largely reduced
Emax (ADORA2A; Agonist): 1.05%
EC50 (ADORA2A; Agonist): > 10 µM
Emax (ADORA2A; Antagonist): 37.7%
IC50 (ADORA2A; Antagonist): > 10 µM
Emax (ADRA2A; Agonist): 38.8%
EC50 (ADRA2A; Agonist): > 10 µM
Emax (ADRA2A; Antagonist): 0%
IC50 (ADRA2A; Antagonist): > 10 µM
Emax (DRD2S; Agonist): 13.5%
EC50 (DRD2S; Agonist): > 10 µM
Emax (DRD2S; Antagonist): 5.93%
IC50 (DRD2S; Antagonist): > 10 µM
Emax (HTR1B; Agonist): 27.4%
EC50 (HTR1B; Agonist): > 10 µM
Emax (HTR1B; Antagonist): 0.13%
IC50 (HTR1B; Antagonist): > 10 µM
Emax (OPRD1; Agonist): 54.8%
EC50 (OPRD1; Agonist): > 10 µM
Emax (OPRD1; Antagonist): 0%
IC50 (OPRD1; Antagonist): > 10 µM
Emax (OPRM1; Agonist): 24.4%
Emax (OPRM1; Antagonist): 53.3%
EC50 (OPRM1; cAMP, Agonist): > 10 µM
Curve Bottom (OPRM1; cAMP, Antagonist): -9.93
Curve Top (OPRM1; cAMP, Antagonist): 100
Hill (OPRM1; cAMP, Antagonist): 1.01
IC50 (OPRM1; cAMP, Antagonist): 7.46 µM
Max Response (GABAA; Blocker): 19.98
IC50 (GABAA; Blocker): > 10 µM
Max Response (GABAA; Opener): 0.77
EC50 (GABAA; Opener): > 10 µM
IC50 (hERG): > 10 µM
Emax (hERG): 4.86%
Emax (KvLQT1/minK; Blocker): 12.9%
IC50 (KvLQT1/minK; Blocker): > 10 µM
Emax (KvLQT1/minK; Opener): 3.89%
EC50 (KvLQT1/minK; Opener): > 10 µM
Emax (AR; Agonist): 0%
EC50 (AR; Agonist): > 10 µM
IC50 (AR; Antagonist): > 10 µM
Emax (COX1): 29.3%
IC50 (COX1): > 10 µM
Emax (PDE3A): 28.2%
IC50 (PDE3A): > 10 µM
Emax (PDE4D2): 44.4%
IC50 (PDE4D2): > 10 µM
Emax (DAT): 16.8%
IC50 (DAT): > 10 µM
Emax (NET): 9.94%
IC50 (NET): > 10 µM

Cl.c1ccc2c(Nc3ccc4[nH]ccc4c3)nc(-c3ccncc3)nc2c1 [BC18630, N-1H-indol-5-yl-2-pyridin-4-ylquinazolin-4-amine hydrochloride]
Nuclear protein-protein interaction between DCAF7 and TFEB (PLA) (DCAF7-TFEB interaction): largely reduced
Emax (ADORA2A; Agonist): 3.09%
EC50 (ADORA2A; Agonist): > 10 µM
Emax (ADORA2A; Antagonist): 29.8%
IC50 (ADORA2A; Antagonist): > 10 µM
Emax (ADRA2A; Agonist): 0%
EC50 (ADRA2A; Agonist): > 10 µM
IC50 (ADRA2A; Antagonist): > 10 µM
Emax (DRD2S; Agonist): 0.87%
EC50 (DRD2S; Agonist): > 10 µM
Emax (DRD2S; Antagonist): 24.3%
IC50 (DRD2S; Antagonist): > 10 µM
Emax (HTR1B; Agonist): 12.5%
EC50 (HTR1B; Agonist): > 10 µM
Emax (HTR1B; Antagonist): 5.74%
IC50 (HTR1B; Antagonist): > 10 µM
Emax (OPRD1; Agonist): 42.6%
EC50 (OPRD1; Agonist): > 10 µM
Emax (OPRD1; Antagonist): 9.94%
IC50 (OPRD1; Antagonist): > 10 µM
Emax (OPRM1; Agonist): 8.65%
Emax (OPRM1; Antagonist): 49.4%
EC50 (OPRM1; cAMP, Agonist): > 10 µM
IC50 (OPRM1; cAMP, Antagonist): > 10 µM
Max Response (GABAA; Blocker): 27.61
IC50 (GABAA; Blocker): > 10 µM
Max Response (GABAA; Opener): 0.97
EC50 (GABAA; Opener): > 10 µM
IC50 (hERG): > 10 µM
Emax (hERG): 6.14%
Emax (KvLQT1/minK; Blocker): 21.4%
IC50 (KvLQT1/minK; Blocker): > 10 µM
Emax (KvLQT1/minK; Opener): 6.18%
EC50 (KvLQT1/minK; Opener): > 10 µM
Emax (AR; Agonist): 0%
EC50 (AR; Agonist): > 10 µM
Emax (AR; Antagonist): 15.6%
IC50 (AR; Antagonist): > 10 µM
Emax (COX1): 21.8%
IC50 (COX1): > 10 µM
Emax (PDE3A): 8.9%
IC50 (PDE3A): > 10 µM
Emax (PDE4D2): 52.3%
IC50 (PDE4D2): > 10 µM
Emax (DAT): 37%
IC50 (DAT): > 10 µM
Emax (NET): 0%
IC50 (NET): > 10 µM
